Measurements published in BindingDB's records for doi:10.1016/j.chembiol.2011.05.010 (Harvard Medical School, 2011).

Key:
Experiment in all cases: Biochemical Assay
[1] = molecular target: Aurora kinase B (Homo sapiens, UniProt Q96GD4)
Method: (§1) In vitro biochemical assays were performed in parallel to determine the most potent tool compound.

[2] = molecular target: T1, Aurora kinase A (Homo sapiens, UniProt O14965)
T1 sequence (O14965 whole entry): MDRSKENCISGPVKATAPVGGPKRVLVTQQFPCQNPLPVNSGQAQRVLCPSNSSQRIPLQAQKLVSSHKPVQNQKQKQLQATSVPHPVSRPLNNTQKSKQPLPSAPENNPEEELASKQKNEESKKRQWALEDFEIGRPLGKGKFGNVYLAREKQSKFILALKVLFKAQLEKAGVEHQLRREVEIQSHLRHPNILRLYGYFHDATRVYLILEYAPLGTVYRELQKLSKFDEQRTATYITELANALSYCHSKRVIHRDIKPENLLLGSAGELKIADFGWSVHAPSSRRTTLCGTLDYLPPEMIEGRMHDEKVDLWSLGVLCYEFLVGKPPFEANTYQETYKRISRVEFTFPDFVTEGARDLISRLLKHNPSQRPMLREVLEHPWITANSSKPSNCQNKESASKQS
Method: as §1

[3] = molecular target: T2, Aurora kinase C (Homo sapiens, UniProt Q9UQB9)
T2 sequence (Q9UQB9 whole entry): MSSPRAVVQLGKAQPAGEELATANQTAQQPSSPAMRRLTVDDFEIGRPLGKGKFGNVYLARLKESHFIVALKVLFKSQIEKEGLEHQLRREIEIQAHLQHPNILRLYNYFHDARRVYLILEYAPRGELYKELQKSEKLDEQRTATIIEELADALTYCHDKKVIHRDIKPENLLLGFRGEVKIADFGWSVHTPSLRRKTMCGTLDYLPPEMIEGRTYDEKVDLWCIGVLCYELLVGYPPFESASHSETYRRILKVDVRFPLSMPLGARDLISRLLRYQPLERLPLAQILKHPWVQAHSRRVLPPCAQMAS
Method: as §1

[4] = molecular target: Homeodomain-interacting protein kinase 2 (Homo sapiens, UniProt Q9H2X6)
Method: as §1

Chain of Homeodomain-interacting protein kinase 2 (Q9H2X6 whole entry): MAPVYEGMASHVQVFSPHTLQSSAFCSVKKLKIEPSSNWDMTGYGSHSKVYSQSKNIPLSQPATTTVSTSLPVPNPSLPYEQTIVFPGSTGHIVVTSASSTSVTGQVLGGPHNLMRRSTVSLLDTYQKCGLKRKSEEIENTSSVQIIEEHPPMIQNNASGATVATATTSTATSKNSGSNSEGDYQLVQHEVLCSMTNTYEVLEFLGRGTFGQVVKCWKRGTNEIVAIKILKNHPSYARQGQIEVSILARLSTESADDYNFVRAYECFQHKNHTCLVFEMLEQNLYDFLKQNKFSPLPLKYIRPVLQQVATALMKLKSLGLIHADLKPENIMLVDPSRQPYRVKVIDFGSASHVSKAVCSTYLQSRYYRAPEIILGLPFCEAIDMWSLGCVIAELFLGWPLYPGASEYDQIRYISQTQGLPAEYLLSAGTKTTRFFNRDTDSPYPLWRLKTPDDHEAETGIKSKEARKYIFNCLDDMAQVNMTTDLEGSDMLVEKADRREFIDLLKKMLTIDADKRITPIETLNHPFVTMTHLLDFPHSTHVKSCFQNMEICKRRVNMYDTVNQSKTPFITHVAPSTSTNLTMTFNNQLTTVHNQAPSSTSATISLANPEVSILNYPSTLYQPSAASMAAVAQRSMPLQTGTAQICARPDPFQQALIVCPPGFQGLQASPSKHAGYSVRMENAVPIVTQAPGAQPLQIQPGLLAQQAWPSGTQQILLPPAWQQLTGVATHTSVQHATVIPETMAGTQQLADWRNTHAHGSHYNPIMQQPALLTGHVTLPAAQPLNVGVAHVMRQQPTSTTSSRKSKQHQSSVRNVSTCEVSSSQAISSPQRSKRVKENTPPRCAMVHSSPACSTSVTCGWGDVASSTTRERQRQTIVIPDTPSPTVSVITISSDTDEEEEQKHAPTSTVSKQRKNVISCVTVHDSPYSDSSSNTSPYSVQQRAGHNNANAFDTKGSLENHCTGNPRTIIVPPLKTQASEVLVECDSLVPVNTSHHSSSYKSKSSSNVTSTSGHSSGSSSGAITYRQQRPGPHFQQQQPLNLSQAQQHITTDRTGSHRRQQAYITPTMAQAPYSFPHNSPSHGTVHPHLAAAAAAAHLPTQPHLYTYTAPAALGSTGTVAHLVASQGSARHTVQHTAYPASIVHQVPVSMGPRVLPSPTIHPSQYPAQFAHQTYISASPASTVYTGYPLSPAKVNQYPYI
Chain of Aurora kinase B (Q96GD4 whole entry): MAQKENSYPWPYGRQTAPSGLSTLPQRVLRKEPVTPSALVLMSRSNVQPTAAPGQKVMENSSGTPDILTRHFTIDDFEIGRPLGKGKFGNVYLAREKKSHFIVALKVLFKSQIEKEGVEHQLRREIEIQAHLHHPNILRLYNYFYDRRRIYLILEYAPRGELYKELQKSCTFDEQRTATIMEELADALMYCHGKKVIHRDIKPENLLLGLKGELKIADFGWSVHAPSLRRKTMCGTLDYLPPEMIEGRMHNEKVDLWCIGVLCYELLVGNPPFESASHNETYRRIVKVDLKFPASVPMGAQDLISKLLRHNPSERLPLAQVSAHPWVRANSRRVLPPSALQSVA

| IC50 [1] | IC50 [2] | IC50 [3] | IC50 [4] | Kd [4] | SMILES |
| --- | --- | --- | --- | --- | --- |
| 24 nM | 8 nM | 41 nM |  |  | CN1C(=O)c2ccccc2N(C)c2nc(Nc3ccc(N4CCC(O)CC4)cc3)ncc21 [Benzo[e]pyrimido[5,4-b][1,4]diazepin-6(11H)-one, 1] |
|  |  |  | 74 nM | 9.5 nM | N=C1NC(=O)/C(=C\c2c[nH]c(=O)c(-c3ccc(N4CCNCC4)nc3)c2)S1 [Furan thiazolidinediones, A64] |
